From US20210122763A1, “OGA INHIBITOR COMPOUNDS” (Janssen Pharmaceutica NV, priority 2018, published 2021)
Structures can show the parent of a compound that is named as a salt.

Experiments:
[1] = target: T1, recombinant human Meningioma Expressed Antigen 5 (MGEA5), also referred to as O-GlcNAcase (OGA) (Homo sapiens, UniProt O60502); assay: OGA biochemical assay (inhibition of FM-GlcNAc hydrolysis, fluorescence); conditions: for Emax: read-out: Enzymatic Emax (%); for IC50: read-out: Enzymatic hOGA, pIC50 (converted)
T1 construct: Full length OGA enzyme was purchased at OriGene (cat #TP322411); purchased OriGene TP322411
T1 sequence (O60502 1-916): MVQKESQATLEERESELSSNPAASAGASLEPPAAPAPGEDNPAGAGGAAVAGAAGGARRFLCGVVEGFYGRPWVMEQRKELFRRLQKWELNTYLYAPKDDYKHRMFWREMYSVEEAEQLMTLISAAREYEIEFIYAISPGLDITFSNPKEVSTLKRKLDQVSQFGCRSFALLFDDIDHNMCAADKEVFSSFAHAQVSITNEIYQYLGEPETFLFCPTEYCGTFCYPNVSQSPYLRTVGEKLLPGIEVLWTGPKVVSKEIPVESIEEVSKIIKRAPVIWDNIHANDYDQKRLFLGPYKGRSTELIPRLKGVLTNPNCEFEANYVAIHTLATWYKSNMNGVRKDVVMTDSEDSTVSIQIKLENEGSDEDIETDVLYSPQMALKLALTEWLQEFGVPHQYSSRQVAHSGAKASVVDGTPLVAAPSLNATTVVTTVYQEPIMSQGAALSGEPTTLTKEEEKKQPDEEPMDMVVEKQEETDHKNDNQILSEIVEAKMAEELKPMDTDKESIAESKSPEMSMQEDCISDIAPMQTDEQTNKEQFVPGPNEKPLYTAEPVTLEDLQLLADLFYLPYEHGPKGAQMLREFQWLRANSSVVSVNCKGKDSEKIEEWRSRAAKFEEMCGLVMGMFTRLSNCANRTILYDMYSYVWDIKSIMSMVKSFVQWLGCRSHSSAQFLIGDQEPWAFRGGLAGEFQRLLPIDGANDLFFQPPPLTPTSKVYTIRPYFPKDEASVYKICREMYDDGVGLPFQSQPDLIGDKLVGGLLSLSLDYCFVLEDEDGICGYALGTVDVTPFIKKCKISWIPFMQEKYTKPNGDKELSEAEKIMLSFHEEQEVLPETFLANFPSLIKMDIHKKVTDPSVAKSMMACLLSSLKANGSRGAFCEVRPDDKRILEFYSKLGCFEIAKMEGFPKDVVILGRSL
Procedure, shortened: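 Full-length OGA at 2 nM was pre-incubated 60 min at room temperature with compound, then FM-GlcNAc at 100 uM final was added in citrate/phosphate buffer pH 7.2 with 0.005% Tween-20. After 6 h at room temperature, carbonate pH 11.0 stopped the reaction. Fluorescence read at 485/538 nm; IC50 and Hill coefficient from curve fit against no-inhibitor and saturating-standard controls.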

OGA = target: T2, OGA (Homo sapiens, UniProt O60502); assay: OGA cellular assay (ICC detection of O-GlcNAcylated proteins in HEK293 cells inducible for P301L mutant human Tau); type: cell-based; conditions: 6 hours incubation; for Emax: HEK293, HEK293 cells inducible for P301L mutant human Tau, maximum = Thiamet G 200 uM; for EC50: HEK293 cells inducible for P301L mutant human Tau, read-out: Cellular hOGA, pEC50 (converted)
T2 construct: HEK293 cells inducible for P301L mutant human Tau (isoform 2N4R) were established at Janssen; endogenous in cells; host or cells: HEK293 cells inducible for P301L mutant human Tau (2N4R)
T2 sequence (O60502 1-916): T1 sequence (O60502 1-916)
Procedure, shortened: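 HEK293 cells with inducible P301L 2N4R Tau, seeded in low-glucose medium, were exposed to compounds for 6 hours (0.2% DMSO), then PFA-fixed and stained with CTD110.6. Imaging intensity at 488 nm measured O-GlcNAcylation, with Hoechst nuclei counts for toxicity. IC50s came from non-linear regression, with Thiamet G at 200 uM as maximum inhibition.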

melting point [°C] | Emax [1] [%] | IC50 [1] [nM] | Emax (OGA) [%] | EC50 (OGA) [nM] | Compound
226.7 |  |  |  |  | Cc1ccc(OC2CCN(C(C)c3ccc4c(n3)OCCO4)CC2)cn1 (centres unmarked) (as salt: HCl) [Compound 41]
139.7 |  |  |  |  | CC(c1nc2c(cc1F)OCCO2)N1CCC(Oc2ccc(C(=O)N(C(C)C)C(C)C)nc2)CC1 (centres unmarked) (as salt: HCl) [Compound 123]
196.6 |  |  |  |  | Cc1cc(OC2CCN(C(C)c3ccc4c(n3)OCCO4)CC2)cc(OC(C)C)n1 (centres unmarked) (as salt: HCl) [Compound 124]
171.4 |  |  |  |  | Cc1cc(OC2CCN(C(C)c3ccc4c(n3)OCCO4)CC2)cc(C2CC2)n1 (centres unmarked) (as salt: HCl) [Compound 125]
66 |  |  |  |  | CCc1cc(OC2CCN(C(C)c3ccc4c(n3)OCCO4)CC2)cc(C)n1 (centres unmarked) (as salt: HCl) [Compound 129]
186.4 |  |  |  |  | Cc1cc(OC2CCN(C(C)c3ccc4c(n3)OCCO4)CC2)cc(C(C)C)n1 (centres unmarked) (as salt: HCl) [Compound 130]
189.8 |  |  |  |  | Cc1cc(OC2(CF)CCN(C(C)c3ccc4c(n3)OCCO4)CC2)cc(C)n1 (centres unmarked) (as salt: HCl) [Compound 132]
103.27 |  |  |  |  | Cc1cc(OC2CCN([C@@H](C)c3nc4c(cc3F)CCO4)CC2)cc(C)n1 (single isomer, unassigned) (as salt: HCl) [Compound 145]
255.75 |  |  |  |  | Cc1cc(OC2CCN([C@H](C)c3nc4c(cc3F)OCCO4)CC2)cc(C)n1 (single isomer, unassigned) (as salt: HCl) [Compound 148]
64.4 | 95 | 12.6 | 81 | 50.1 | Cc1ncc(COC2CCN(C(C)c3nc4c(cc3F)OCCO4)CC2)cn1 (single isomer, unassigned) [Compound 136]
70.1 | 96 | 398 | 25 | > 1000 | Cc1ncc(COC2CCN([C@@H](C)c3nc4c(cc3F)OCCO4)CC2)cn1 (single isomer, unassigned) [Compound 137]
105.3 | 99 | 5.01 | 100 | 17.4 | Cc1cc(OC2CCN([C@H](C)c3nc4c(cc3F)CCO4)CC2)cc(C)n1 (single isomer, unassigned) [Compound 143]
213.2 | 100 | 794 | 15 | > 1000 | Cc1ncc(OC2CCN(C(C)c3ccc4c(c3)OCO4)CC2)cn1.Cl (centres unmarked) [Compound 30]
278.4 | 96 | 794 | 21 | > 1000 | Cc1ccc(OC2CCN(C(C)c3ccc4c(c3)OCO4)CC2)cn1.Cl (centres unmarked) [Compound 31]
91.71 | 99 | 79.4 | 36 | > 1000 | Cc1cncc(OC2CCN(C(C)c3ccc4c(n3)OCCO4)CC2)n1 (centres unmarked) [Compound 76]
72.8 | 100 | 100 | 48 | > 1000 | Cc1ncc(OC2CCN(C(C)c3ccc4c(n3)OCCO4)CC2)cn1.Cl (centres unmarked) [Compound 90]
134.6 | 105 | 15.8 | 86 | 200 | Cc1ncc(OC2CCN(C(C)c3nc4c(cc3F)OCCO4)CC2)cn1.Cl (centres unmarked) [Compound 91]
 | 102 | 7.94 | 95 | 50.1 | Cc1cc(OC2CCN(C(C)c3nc4c(cc3F)OCCO4)CC2)cc(C#N)n1 (centres unmarked) [Compound 128]
 | 97 | 63.1 | 83 | 126 | CCc1cc(OC2CCN(C(C)c3ccc4c(n3)OCCO4)CC2)cc(C)n1 (centres unmarked) [Compound 129]
 | 100 | 39.8 | 59 | 245 | Cc1cc(OC2CCN(C(C)c3ccc4c(n3)OCCO4)CC2)cc(C(C)C)n1 (centres unmarked) [Compound 130]

melting point [°C] | Emax [1] [%] | IC50 [1] [nM] | Emax (OGA) [%] | EC50 (OGA) [nM] | Compound
 | 70 | 3980 | -4 | > 1000 | CC(c1ccc2c(n1)OCCO2)N1CCC(C)(Oc2ccc(F)cc2)CC1 (centres unmarked) [Compound 131]
 | 63 | 6310 | 24 | > 1000 | Cc1cc(OC2(CF)CCN(C(C)c3ccc4c(n3)OCCO4)CC2)cc(C)n1 (centres unmarked) [Compound 132]
 | 94 | 10 | 81 | 63.1 | COc1cc(COC2CCN(C(C)c3nc4c(cc3F)OCCO4)CC2)cc(C)n1 (centres unmarked) [Compound 134]
 | 100 | 20 | 79 | 158 | Cc1ccc(COC2CCN(C(C)c3nc4c(cc3F)OCCO4)CC2)cn1 (centres unmarked) [Compound 138]
 | 93 | 100 | 42 |  | Cc1ncc(OC2CCN(C(C)c3ccc4c(n3)OCCO4)CC2)cc1F (centres unmarked) [Compound 152]
 | 95 | 31.6 | 67 | 200 | COc1cc(OC2CCN(C(C)c3nc4c(cc3F)OCCO4)CC2)ncc1C#N (centres unmarked) [Compound 153]
 | 94 | 39.8 | 81 | 158 | Cc1cc(COC2CCN(C(C)c3ccc4c(n3)OCC4)CC2)cc(C)n1 (centres unmarked) [Compound 154]
 | 94 | 15.8 | 67 | 79.4 | CC(c1nc2c(cc1F)OCCO2)N1CCC(Oc2ccnc(C#N)c2)CC1 (centres unmarked) [Compound 155]
 | 94 | 20 | 80 | 158 | Cc1cnc(OC2CCN(C(C)c3nc4c(cc3F)OCCO4)CC2)cc1C (centres unmarked) [Compound 157]
 | 99 | 15.8 | 77 | 251 | CC(c1nc2c(cc1F)OCCO2)N1CCC(Oc2ccc(C(F)(F)F)cn2)CC1 (centres unmarked) [Compound 158]
 | 94 | 12.6 | 75 | 63.1 | Cc1cc(COC2CCN(C(C)c3nc4c(cc3F)OCCO4)CC2)cc(C)n1 (centres unmarked) [Compound 159]
 | 96 | 12.6 | 87 | 39.8 | Cc1cc(COC2CCN(C(C)c3nc4nc(C)sc4cc3F)CC2)cc(C)n1 (centres unmarked) [Compound 160]
 | 97 | 20 | 83 | 158 | Cc1ccnc(OC2CCN(C(C)c3nc4c(cc3F)OCCO4)CC2)c1 (centres unmarked) [Compound 161]
 | 98 | 12.6 | 83 | 63.1 | Cc1cc(OC2CCN(C(C)c3nc4c(cc3F)OCCO4)CC2)ccn1 (centres unmarked) [Compound 162]
 | 92 | 126 | 34 | > 1000 | CC(c1ccc2c(n1)OCCO2)N1CCC(Oc2cnc(C3CCC3)nc2)CC1 (centres unmarked) [Compound 163]
 | 96 | 7.94 | 72 | 67.6 | CC(c1nc2c(cc1F)OCCO2)N1CCC(Oc2ccc(C3CC3)nc2)CC1 (centres unmarked) [Compound 164]
 | 94 | 15.8 | 72 | 316 | Cc1ccc(OC2CCN(C(C)c3nc4c(cc3F)OCCO4)CC2)nc1 (centres unmarked) [Compound 165]
 | 98 | 10 | 85 | 63.1 | Cc1cc(OC2CCN(C(C)c3nc4c(cc3F)OCCO4)CC2)cnc1C (centres unmarked) [Compound 166]
 | 96 | 12.6 | 75 | 200 | CC(c1nc2c(cc1F)OCCO2)N1CCC(Oc2cnc(C(F)(F)F)nc2)CC1 (centres unmarked) [Compound 168]
 | 96 | 12.6 | 87 | 51.3 | Cc1cc(COC2CCN(C(C)c3nc4c(cc3F)OCCO4)CC2)cc(C(F)(F)F)n1 (centres unmarked) [Compound 169]
